Legend:
[1] = target: 5-HT1BR (Homo sapiens (Human), UniProt P28222); test: 5-HT1BR cAMP secondary messenger agonist assay (HitHunter, CHO-K1); type: cell-based
Excerpt: (§1) The 5-HT1BR cAMP secondary messenger agonist assay used a panel of CHO-K1 cell lines stably expressing non-tagged GPCRs that endogenously signal through cAMP. Hit Hunter® cAMP assays monitored the activation of a GPCR via Gi and Gs secondary messenger signaling in a homogenous, non-imaging assay format using DiscoverX Enzyme Fragment Complementation (EFC) with β-galactosidase as the functional endpoint.
The enzyme was split into two complementary portions: Enzyme Acceptor (EA) and Enzyme Donor (ED). Exogenously introduced ED fused to cAMP (ED-cAMP) competed with endogenously generated cAMP for binding to an anti-cAMP-specific antibody. Active β-galactosidase was formed by complementation of exogenous EA to any unbound ED-cAMP.
(§2) Cell lines were expanded from freezer stocks according to standard procedures. Cells were seeded in a total volume of 20 μL into white walled, 384-well microplates and incubated at 37° C. for the appropriate time prior to testing. cAMP modulation was determined using the DiscoverX HitHunter cAMP XS+ assay.
For agonist determination, cells were incubated with sample (in the presence of EC80 forskolin to induce response if measuring Gi secondary messenger signaling). Media was aspirated from cells and replaced with 15 μL 2:1 HBSS/10 mM Hepes:cAMP XS+ Ab reagent. Intermediate dilution of sample stocks was performed to generate 4×sample in assay buffer (optionally containing 4×EC80 forskolin). 5 μL of 4×sample was added to cells and incubated at 37° C. or room temperature for 30 or 60 minutes, as appropriate. Final assay vehicle concentration was 1%.

[2] = target: adrenergic β2 receptor (Homo sapiens (Human), UniProt P07550); test: Adrenergic β2 receptor cAMP secondary messenger antagonist assay; type: cell-based
Sequence of adrenergic β2 receptor (P07550 whole entry, looked up): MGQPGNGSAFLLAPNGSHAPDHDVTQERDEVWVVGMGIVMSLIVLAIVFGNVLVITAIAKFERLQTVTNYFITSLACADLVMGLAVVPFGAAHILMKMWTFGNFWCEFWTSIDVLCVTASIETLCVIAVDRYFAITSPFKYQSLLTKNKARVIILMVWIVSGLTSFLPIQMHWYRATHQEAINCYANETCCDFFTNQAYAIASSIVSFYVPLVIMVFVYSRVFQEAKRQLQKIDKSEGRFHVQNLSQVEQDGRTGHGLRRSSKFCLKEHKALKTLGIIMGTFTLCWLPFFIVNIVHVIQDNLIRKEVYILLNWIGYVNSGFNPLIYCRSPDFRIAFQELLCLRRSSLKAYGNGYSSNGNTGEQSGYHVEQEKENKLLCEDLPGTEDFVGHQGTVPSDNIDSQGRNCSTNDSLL
Excerpt: as §1, with “This” for “The 5-HT1BR cAMP secondary messenger agonist”
The enzyme was split into two complementary portions: Enzyme Acceptor (EA) and Enzyme Donor (ED). In the assay, exogenously introduced ED fused to cAMP (ED-cAMP) competed with endogenously generated cAMP for binding to an anti-cAMP-specific antibody. […] Active enzyme could then convert a chemiluminescent substrate, generating an output signal detectable on a standard microplate reader.
as §2, with “assay. […]” for “assay.”
Compound activity was analyzed using CBIS data analysis suite (ChemInnovation, CA). For Gs antagonist mode assays, percentage inhibition was calculated as 100%×(1−(mean RLU of test sample−mean RLU of vehicle control)/(mean RLU of EC80 control−mean RLU of vehicle control)).

[3] = target: MAO-A (Homo sapiens (Human), UniProt P21397); test: MAO-A inhibition assay (kynuramine); type: biochemical
Sequence of MAO-A (P21397 whole entry, looked up, species assumed): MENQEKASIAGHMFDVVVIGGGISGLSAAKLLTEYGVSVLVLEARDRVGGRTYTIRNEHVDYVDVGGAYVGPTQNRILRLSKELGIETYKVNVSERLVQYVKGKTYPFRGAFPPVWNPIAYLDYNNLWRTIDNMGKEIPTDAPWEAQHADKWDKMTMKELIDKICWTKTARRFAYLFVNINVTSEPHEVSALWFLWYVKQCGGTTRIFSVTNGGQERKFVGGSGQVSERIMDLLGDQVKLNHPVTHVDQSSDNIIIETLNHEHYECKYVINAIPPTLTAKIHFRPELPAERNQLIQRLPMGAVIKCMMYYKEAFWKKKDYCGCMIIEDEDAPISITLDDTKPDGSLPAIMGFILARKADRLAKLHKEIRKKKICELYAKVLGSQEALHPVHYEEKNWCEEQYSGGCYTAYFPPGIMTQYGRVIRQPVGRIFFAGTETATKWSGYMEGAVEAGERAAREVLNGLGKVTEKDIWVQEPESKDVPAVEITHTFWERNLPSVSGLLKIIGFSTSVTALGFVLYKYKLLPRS
Method: MAO-A and test compounds were preincubated at 37° C. for 15 minutes before substrate addition. Test compounds were assayed at 10 concentrations with the highest concentration either 30 or 10 μM and subsequent concentrations using a 0.33 dilution factor. The reaction was initiated by addition of kynuramine and incubated at 37° C. for 30 minutes. The reaction was terminated by addition of NaOH. The amount of 4-hydroquioline formed was determined through spectrofluorimetric readout with the emission detection at 380 nm and excitation wavelength 310 nm.

[4] = target: Nicotinic Acetylcholine Receptor α4β2 (nAchRa4/b2) (Homo sapiens (Human), UniProt P17787+P43681); test: Nicotinic acetylcholine receptor α4β2 ion channel blocking assay; type: cell-based
Sequence of Nicotinic Acetylcholine Receptor α4β2 (nAchRa4/b2) (P43681 29-627 limits assumed): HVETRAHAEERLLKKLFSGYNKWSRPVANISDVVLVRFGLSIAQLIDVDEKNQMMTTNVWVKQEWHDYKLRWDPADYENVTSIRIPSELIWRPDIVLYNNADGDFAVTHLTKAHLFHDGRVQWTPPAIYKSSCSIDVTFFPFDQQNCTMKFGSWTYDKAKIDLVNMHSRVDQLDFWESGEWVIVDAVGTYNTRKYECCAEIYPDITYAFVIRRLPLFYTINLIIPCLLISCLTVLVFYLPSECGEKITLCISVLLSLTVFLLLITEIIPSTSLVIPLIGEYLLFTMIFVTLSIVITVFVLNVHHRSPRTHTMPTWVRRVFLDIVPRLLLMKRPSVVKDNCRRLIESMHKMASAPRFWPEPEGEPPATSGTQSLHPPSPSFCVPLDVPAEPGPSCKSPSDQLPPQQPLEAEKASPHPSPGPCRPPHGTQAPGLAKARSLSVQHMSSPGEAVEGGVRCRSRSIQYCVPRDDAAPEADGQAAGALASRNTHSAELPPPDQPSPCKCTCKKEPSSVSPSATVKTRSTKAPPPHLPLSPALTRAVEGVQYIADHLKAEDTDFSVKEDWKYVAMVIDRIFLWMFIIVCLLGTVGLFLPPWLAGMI
Sequence of Nicotinic Acetylcholine Receptor α4β2 (nAchRa4/b2) (P17787 26-502 limits assumed): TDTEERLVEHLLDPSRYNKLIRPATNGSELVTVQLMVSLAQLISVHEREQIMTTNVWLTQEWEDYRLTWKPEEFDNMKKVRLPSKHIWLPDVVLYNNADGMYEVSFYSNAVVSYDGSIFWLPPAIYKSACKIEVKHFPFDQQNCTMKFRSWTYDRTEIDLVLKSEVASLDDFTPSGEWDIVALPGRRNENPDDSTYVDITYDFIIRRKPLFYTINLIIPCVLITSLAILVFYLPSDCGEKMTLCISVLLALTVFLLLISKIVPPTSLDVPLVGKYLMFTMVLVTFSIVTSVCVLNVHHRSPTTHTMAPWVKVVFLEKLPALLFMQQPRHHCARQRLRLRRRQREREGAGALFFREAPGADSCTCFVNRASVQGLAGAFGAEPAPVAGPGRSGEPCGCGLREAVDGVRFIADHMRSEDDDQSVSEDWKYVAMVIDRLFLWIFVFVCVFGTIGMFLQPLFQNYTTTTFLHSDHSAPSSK
Method: Cell lines were expanded from freezer stocks according to standard procedures. Cells were seeded in a total volume of 20 μL into black-walled, clear-bottom, Poly-D-lysine coated 384-well microplates and incubated at 37° C. for the appropriate time prior to testing.
Assays were performed in 1×Dye Loading Buffer consisting of 1×Dye, and 2.5 mM freshly-prepared Probenecid when applicable.
Test compounds were assayed at 10 concentrations with the highest concentration either 30 or 10 μM and subsequent concentrations using a 0.33 dilution factor.
Prior to testing, cells were loaded with dye then incubated for 30-60 minutes at 37° C. For antagonist determination, cells were pre-incubated with sample. Dihydro-β-erythroidine was used as a positive control. Intermediate dilution of sample stocks was performed to generate 2-5×sample in assay buffer.
After dye loading, cells were moved from the incubator and 10-25 μL 2-5×sample was added to cells in the presence of EC80 agonist when appropriate. Cells were incubated for 30 minutes at room temperature in the dark to equilibrate plate temperature. Vehicle concentration was 1%.
Compound activity was measured on a FLIPRTetra(MDS) and analyzed using CBIS data analysis suite (ChemInnovation, CA). Percentage inhibition was calculated using the following formula: % Inhibition=100%×(1−(mean RLU of test sample−mean RLU of vehicle control)/(mean RLU of EC80 control−mean RLU of vehicle control)).

[5] = target: human 5-HT transporter (hSERT) (Homo sapiens (Human), UniProt P31645); test: Human serotonin transporter  assay ([3H]imipramine radioligand, CHO cells); type: binding; settings: SERT IC50 (μM), 2 nM [3H]imipramine
Method: Benzofuran derivatives were evaluated for inhibiting the human 5-HT transporter (hSERT) as expressed in CHO cells using an antagonist radioligand assay (Tatsumi, M. et al. (1999), Eur. J Pharmacol., 368: 277-283). […] Test compounds were assayed in three trials at […], and 0.94868 μM.

[6] = target: T1, serotonin (5-HT) transporter (SERT) (Rattus norvegicus (Rat), UniProt P31652); test: Rat synaptosome SERT [3H]5-HT release assay; settings: [3H]5-HT release via SERT EC50 (nM), 5 nM [3H]5-HT
[7] = target: T1, serotonin (5-HT) transporter (SERT); test: Rat synaptosome SERT [3H]5-HT uptake inhibition assay; settings: Inhibition of [3H]5-HT Uptake at SERT IC50 (nM), 5 nM [3H]5-HT

Structure (SMILES): CN[C@H](C)Cc1ccc2ccoc2c1 [Compound R-6-MAPB, (R)-1-(benzofuran-6-yl)-N-methylpropan-2-amine]
- Hill Coef. [1]: 1.14
- EC50 ([1]; 5-HT1BR EC50 (μM)): 1.48 µM
- EC50 ([1]; 5HT1B Agonist (μM)): 1.48 µM
- IC50 [2]: 4.06 µM
- IC50 [3]: 2120 nM
- IC50 [4]: 7.41 µM
- IC50 [5]: 24 µM
- EC50 [6]: 112 ± 17.5 nM
- IC50 [7]: 623 ± 31.2 nM

Source: patent publication US11767305B2, “Advantageous benzofuran compositions for mental disorders or enhancement” (Tactogen Inc, priority 2020, dated 2023)
